# Measured values reported in patent publication US12310962B2, “Methods and compositions for treating cancer” (Zetagen Therapeutics, Inc., priority 2019, dated 2025).
# Entries after “also recorded” stand apart in the source; their conditions may differ.
# Assays:
# [1] = tested on: breast cancer cells (BT20); assay: LDH release cytotoxicity assay; format: cell-based; conditions: naloxone added for 3 hours, LDH release at 24 hours post-treatment, corrected for cell number, p<0.001
# SaOS2 cells = assay: Cell number after 72 hours of naloxone treatment; conditions: highest dose
# BT20 = assay: Cell number after 72 hours of naloxone treatment; conditions: highest dose
# [2] = tested on: breast cancer cells (BT474); assay: LDH release cytotoxicity assay; format: cell-based; conditions: naloxone added for 3 hours, LDH release at 24 hours post-treatment, corrected for cell number, p<0.001
# [3] = tested on: osteosarcoma cells (SaOS2); assay: LDH release cytotoxicity assay; format: cell-based; conditions: naloxone added for 3 hours, LDH release at 24 hours post-treatment, corrected for cell number, p<0.001
# [4] = tested on: triple negative breast cancer (TNBC) cells BT474; assay: Cell number after 72 hours of naloxone treatment; format: cell-based; conditions: BT474; 72 h exposure; dose dependent
# [5] = Cell number after 72 hours of naloxone treatment; format: cell-based; conditions: cells printed as "90"; highest dose; after 72 hours
# [6] = tested on: non-tumor cells, breast epithelium (HUMEC) or vascular endothelium (HUVEC); assay: Cell number of non-tumor control cells versus naloxone dose; format: cell-based; conditions: 72 h
# BT474 TNBC cells = assay: Tumor spheroid assay; format: cell-based; conditions: 1-5 mM, dose dependent
# Method: (§1) FIGS. 3A-3C depict a spheroid assay showing that naloxone (an OGFR antagonist) treatment decreases tumor size in vitro. […] FIG. 3B depicts a graph showing quantification of the size of the spheroids formed in the spheroid assay described in FIG. 3A as percent change in spheroid area fraction between time 0 and 120 hours after treatment. FIG. 3C depicts a graph showing quantification of the size of the spheroids formed in the spheroid assay described in FIG. 3A as percent change in cell area fraction in each spheroid at 120 hours after treatment.
# (§2) Malignant tumors are characterized by invasion of surrounding normal tissues, and the spheroid assay is a simple micro-plate method (based on uniform, self-assembling 3D tumor spheroids) that is routinely used to assess tumor growth. The effects of anti-tumor efficacy were determined by quantifying the size of the spheroids formed in the and calculate percent change in spheroid area fraction between time 0 and 120 hours after treatment as shown in FIG. 3B. The anti-tumor efficacy was also determined by quantifying the percent change in cell area fraction in each spheroid at 120 hours after treatment as determined by staining the cells with crystal violet as shown in FIG. 3C.
# SaOS2 osteosarcoma cells = assay: Tumor spheroid assay; format: cell-based; conditions: 1-5 mM, dose dependent
# Method: as §1, §2
# [7] = between time 0 and 120 hours after treatment
structure (smiles),measurement,setting,value
"C=CCN1CC[C@]23c4c5ccc(O)c4O[C@H]2C(=O)CC[C@@]3(O)[C@H]1C5 [Naloxone, naloxone]",increase in LDH values relative to normal (non-tumor) cells,[1],6 fold
same,decrease in cell number,SaOS2 cells,60%
same,decrease in cell number,BT20,90%
same,increase in LDH values relative to normal (non-tumor) cells,[2],3 fold
same,increase in LDH values relative to normal (non-tumor) cells,[3],6 fold
same,"number of metabolically active cells compared to control non-tumor cells (HUMEC, HUVEC)",[4],significant reduction
same,decrease in cell number,[5],90%
same,dose up to which a non-tumor cell sparing effect is provided,[6],≤ 2.5 mM
same,"tumor mass cellularity (percent change in cell area fraction, crystal violet)",BT474 TNBC cells; 120 hours after treatment,decreased
same,size of the tumor masses (percent change in spheroid area fraction),BT474 TNBC cells; [7],reduced tumor growth; also recorded: decreased the size of the tumor masses
same,"tumor mass cellularity (percent change in cell area fraction, crystal violet)",SaOS2 osteosarcoma cells; 120 hours after treatment,decreased
same,size of the tumor masses (percent change in spheroid area fraction),SaOS2 osteosarcoma cells; [7],decreased the size of the tumor masses
